Key:
Test in all cases: KINOMEscan competition binding
Conditions in all cases: compound 10.0 µM
[1] = molecular target: AAK1 (human) (UniProt Q2M2I8)
[2] = system: ABL1 (human), P00519 [Y253F]
[3] = molecular target: ABL2 (human) (UniProt P42684)
[4] = molecular target: AKT3 (human) (UniProt Q9Y243)
[5] = molecular target: BTK (human) (UniProt Q06187)
[6] = molecular target: CAMK2B (human) (UniProt Q13554)
[7] = molecular target: EPHA2 (human) (UniProt P29317)
[8] = molecular target: EPHA7 (human) (UniProt Q15375)
[9] = molecular target: FES (human) (UniProt P07332)
[10] = molecular target: FRK (human) (UniProt P42685)
[11] = molecular target: FYN (human) (UniProt P06241)
[12] = molecular target: MAP3K4 (human) (UniProt Q9Y6R4)
[13] = molecular target: MAP3K7 (human) (UniProt O43318)
[14] = molecular target: MAPK4 (human) (UniProt P31152)
[15] = molecular target: MAPK7 (human) (UniProt Q13164)
[16] = molecular target: MYLK3 (human) (UniProt Q32MK0)
[17] = molecular target: MYO3B (human) (UniProt Q8WXR4)
[18] = molecular target: NEK5 (human) (UniProt Q6P3R8)
[19] = molecular target: NEK6 (human) (UniProt Q9HC98)
[20] = molecular target: PDGFRB (human) (UniProt P09619)
[21] = molecular target: PIK3CA (human) (UniProt P42336)
[22] = molecular target: PIP5K1A (human) (UniProt Q99755)
[23] = molecular target: PKMYT1 (human) (UniProt Q99640)
[24] = molecular target: PLK1 (human) (UniProt P53350)
[25] = molecular target: PRKG2 (human) (UniProt Q13237)
[26] = molecular target: PRKX (human) (UniProt P51817)
[27] = molecular target: PTK2 (human) (UniProt Q05397)
[28] = molecular target: RIOK3 (human) (UniProt O14730)
[29] = molecular target: ROS1 (human) (UniProt P08922)
[30] = molecular target: SGK110 (human) (UniProt P0C264)
[31] = molecular target: STK11 (human) (UniProt Q15831)
[32] = molecular target: STK16 (human) (UniProt O75716)
[33] = molecular target: STK17A (human) (UniProt Q9UEE5)
[34] = molecular target: STK32C (human) (UniProt Q86UX6)
[35] = molecular target: TNK2 (human) (UniProt Q07912)
[36] = molecular target: TNNI3K (human) (UniProt Q59H18)
[37] = molecular target: TYRO3 (human) (UniProt Q06418)
Chain of TYRO3 (human) (Q06418 whole entry, looked up): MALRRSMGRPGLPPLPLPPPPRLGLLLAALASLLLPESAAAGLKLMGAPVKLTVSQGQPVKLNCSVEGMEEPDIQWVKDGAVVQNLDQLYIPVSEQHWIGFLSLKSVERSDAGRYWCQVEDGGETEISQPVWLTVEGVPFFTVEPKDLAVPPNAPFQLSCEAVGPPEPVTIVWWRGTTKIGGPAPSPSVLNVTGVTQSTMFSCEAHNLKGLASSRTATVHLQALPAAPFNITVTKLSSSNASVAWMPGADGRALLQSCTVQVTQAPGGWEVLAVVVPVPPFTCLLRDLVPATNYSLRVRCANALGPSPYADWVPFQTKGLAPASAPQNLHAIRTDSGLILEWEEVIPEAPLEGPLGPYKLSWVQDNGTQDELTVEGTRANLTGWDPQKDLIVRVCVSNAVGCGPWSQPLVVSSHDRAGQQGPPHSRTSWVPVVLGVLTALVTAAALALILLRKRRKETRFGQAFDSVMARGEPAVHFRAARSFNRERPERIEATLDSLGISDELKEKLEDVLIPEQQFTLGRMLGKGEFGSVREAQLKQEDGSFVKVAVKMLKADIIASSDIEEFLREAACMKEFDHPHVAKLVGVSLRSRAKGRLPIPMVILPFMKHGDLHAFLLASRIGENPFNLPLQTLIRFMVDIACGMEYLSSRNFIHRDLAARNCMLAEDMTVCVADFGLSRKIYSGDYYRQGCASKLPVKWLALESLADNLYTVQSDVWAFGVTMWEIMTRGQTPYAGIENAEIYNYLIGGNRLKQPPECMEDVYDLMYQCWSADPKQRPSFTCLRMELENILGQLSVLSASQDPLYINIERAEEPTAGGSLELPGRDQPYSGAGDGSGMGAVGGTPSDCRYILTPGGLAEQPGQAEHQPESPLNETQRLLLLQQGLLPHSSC

Chain of PRKG2 (human) (Q13237 whole entry, looked up): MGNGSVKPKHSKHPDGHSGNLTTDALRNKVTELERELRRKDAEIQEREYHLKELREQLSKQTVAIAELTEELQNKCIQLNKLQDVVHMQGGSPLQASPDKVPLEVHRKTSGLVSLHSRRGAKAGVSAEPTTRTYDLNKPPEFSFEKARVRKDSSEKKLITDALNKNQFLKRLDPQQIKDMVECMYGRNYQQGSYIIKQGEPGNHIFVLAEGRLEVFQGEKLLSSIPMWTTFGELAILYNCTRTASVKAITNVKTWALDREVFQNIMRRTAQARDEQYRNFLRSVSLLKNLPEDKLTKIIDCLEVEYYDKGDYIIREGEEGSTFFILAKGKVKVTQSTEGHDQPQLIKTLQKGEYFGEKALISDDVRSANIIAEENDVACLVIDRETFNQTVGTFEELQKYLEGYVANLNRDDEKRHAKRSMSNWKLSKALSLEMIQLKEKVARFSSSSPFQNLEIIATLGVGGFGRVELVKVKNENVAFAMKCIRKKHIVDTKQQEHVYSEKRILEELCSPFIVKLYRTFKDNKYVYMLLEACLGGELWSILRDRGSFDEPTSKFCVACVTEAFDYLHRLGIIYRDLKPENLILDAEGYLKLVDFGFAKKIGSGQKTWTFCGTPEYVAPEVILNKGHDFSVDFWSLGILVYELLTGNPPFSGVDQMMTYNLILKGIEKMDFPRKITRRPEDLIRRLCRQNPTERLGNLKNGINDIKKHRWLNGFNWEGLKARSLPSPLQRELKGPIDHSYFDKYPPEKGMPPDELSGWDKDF
Chain of FES (human) (P07332 whole entry, looked up): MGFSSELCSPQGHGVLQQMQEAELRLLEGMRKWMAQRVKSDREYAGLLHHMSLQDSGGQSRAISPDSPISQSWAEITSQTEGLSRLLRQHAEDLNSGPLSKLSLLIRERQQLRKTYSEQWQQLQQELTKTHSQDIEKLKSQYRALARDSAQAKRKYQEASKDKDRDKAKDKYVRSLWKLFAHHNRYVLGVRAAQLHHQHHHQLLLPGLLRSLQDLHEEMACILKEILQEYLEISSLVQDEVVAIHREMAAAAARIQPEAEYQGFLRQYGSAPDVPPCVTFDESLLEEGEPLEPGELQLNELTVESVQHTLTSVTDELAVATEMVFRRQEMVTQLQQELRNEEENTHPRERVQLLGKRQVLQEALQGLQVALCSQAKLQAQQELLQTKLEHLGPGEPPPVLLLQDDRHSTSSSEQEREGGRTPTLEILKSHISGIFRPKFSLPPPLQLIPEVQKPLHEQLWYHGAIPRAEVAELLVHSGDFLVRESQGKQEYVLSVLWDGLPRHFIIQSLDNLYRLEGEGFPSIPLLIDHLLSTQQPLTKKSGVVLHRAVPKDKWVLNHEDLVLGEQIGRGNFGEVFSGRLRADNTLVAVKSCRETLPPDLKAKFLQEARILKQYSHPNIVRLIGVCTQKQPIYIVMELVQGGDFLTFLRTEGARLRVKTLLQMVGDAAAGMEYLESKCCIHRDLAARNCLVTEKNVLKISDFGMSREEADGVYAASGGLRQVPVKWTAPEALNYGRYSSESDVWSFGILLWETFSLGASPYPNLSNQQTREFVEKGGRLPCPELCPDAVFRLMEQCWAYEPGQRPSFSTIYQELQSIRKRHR
Chain of PIK3CA (human) (P42336 whole entry, looked up): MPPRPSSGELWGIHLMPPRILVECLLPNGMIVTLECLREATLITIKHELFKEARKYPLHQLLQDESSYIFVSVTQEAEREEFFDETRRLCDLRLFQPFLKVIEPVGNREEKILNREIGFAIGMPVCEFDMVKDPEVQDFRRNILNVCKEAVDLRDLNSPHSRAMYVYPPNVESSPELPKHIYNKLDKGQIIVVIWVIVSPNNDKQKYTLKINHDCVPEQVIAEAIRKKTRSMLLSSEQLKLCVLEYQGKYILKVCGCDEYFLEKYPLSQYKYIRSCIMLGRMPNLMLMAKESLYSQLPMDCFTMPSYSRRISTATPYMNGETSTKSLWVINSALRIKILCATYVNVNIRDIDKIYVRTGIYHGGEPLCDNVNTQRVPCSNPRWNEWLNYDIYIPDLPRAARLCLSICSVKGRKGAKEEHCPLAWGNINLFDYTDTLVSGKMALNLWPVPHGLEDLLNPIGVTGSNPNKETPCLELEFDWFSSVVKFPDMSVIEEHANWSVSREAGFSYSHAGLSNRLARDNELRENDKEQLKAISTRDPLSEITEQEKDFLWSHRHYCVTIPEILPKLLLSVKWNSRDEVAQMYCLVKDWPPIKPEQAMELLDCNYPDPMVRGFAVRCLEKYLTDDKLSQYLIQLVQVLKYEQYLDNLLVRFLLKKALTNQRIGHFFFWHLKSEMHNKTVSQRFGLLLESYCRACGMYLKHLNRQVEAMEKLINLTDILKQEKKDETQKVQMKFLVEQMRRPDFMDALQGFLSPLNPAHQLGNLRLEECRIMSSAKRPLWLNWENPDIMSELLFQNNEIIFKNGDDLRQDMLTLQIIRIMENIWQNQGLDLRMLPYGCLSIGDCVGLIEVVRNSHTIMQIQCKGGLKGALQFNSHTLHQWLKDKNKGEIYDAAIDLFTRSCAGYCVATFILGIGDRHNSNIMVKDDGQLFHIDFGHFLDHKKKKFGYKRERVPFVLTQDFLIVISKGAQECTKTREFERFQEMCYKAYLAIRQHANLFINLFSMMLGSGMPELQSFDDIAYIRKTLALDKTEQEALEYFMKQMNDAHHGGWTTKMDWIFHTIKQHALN
Chain of TNK2 (human) (Q07912 whole entry, looked up): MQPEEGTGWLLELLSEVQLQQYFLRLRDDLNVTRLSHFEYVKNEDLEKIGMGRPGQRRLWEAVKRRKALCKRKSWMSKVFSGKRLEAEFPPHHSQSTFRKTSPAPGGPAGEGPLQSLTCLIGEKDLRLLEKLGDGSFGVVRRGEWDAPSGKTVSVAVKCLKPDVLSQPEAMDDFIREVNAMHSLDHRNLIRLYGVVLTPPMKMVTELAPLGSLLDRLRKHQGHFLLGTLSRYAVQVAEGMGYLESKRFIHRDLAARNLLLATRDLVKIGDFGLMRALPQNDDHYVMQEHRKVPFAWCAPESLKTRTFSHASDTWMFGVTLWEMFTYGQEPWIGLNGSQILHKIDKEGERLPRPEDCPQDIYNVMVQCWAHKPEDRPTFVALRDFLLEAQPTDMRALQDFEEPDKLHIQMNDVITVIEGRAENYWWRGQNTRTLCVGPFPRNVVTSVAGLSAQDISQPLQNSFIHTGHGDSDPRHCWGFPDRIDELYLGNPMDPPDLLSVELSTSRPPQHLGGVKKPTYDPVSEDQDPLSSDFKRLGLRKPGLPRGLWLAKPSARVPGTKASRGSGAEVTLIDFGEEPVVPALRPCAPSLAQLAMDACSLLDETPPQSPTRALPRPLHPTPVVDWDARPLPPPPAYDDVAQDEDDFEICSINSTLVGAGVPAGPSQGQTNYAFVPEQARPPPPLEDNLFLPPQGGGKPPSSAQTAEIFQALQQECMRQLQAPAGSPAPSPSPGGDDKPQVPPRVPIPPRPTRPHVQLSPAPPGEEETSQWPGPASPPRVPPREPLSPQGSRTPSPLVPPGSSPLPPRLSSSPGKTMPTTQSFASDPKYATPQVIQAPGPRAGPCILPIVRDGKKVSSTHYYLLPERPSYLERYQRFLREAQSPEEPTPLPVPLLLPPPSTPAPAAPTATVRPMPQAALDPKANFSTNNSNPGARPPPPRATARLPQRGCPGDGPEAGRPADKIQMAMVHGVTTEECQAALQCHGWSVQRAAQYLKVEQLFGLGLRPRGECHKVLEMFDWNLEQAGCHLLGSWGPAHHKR
Chain of STK17A (human) (Q9UEE5 whole entry, looked up): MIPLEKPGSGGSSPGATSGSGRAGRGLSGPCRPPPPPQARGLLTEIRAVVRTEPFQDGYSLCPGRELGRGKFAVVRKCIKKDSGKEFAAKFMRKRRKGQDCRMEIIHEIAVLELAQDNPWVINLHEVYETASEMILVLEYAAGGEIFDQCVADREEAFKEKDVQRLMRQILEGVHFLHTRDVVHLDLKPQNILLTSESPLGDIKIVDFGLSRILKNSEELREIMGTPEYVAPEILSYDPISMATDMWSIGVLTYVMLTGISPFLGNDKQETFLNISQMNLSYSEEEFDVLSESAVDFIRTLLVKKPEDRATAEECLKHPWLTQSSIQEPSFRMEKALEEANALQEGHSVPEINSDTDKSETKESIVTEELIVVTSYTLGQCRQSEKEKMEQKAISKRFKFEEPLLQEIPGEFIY

C=CC(=O)Nc1ccc(CN(C(=O)Nc2c(Cl)c(OC)cc(OC)c2Cl)c2cc(Nc3ccc(N4CCN(C)CC4)cc3)ncn2)cc1
kinase still bound, per cent of control [1]: 100% | kinase still bound, per cent of control [2]: 13% | kinase still bound, per cent of control [3]: 9.1% | kinase still bound, per cent of control [4]: 100% | kinase still bound, per cent of control [5]: 1.2% | kinase still bound, per cent of control [6]: 100% | kinase still bound, per cent of control [7]: 100% | kinase still bound, per cent of control [8]: 100% | kinase still bound, per cent of control [9]: 4% | kinase still bound, per cent of control [10]: 0.65% | kinase still bound, per cent of control [11]: 5.6% | kinase still bound, per cent of control [12]: 10% | kinase still bound, per cent of control [13]: 100% | kinase still bound, per cent of control [14]: 100% | kinase still bound, per cent of control [15]: 9.7% | kinase still bound, per cent of control [16]: 100% | kinase still bound, per cent of control [17]: 100% | kinase still bound, per cent of control [18]: 100% | kinase still bound, per cent of control [19]: 100% | kinase still bound, per cent of control [20]: 0% | kinase still bound, per cent of control [21]: 100% | kinase still bound, per cent of control [22]: 100% | kinase still bound, per cent of control [23]: 100% | kinase still bound, per cent of control [24]: 100% | kinase still bound, per cent of control [25]: 100% | kinase still bound, per cent of control [26]: 100% | kinase still bound, per cent of control [27]: 100% | kinase still bound, per cent of control [28]: 100% | kinase still bound, per cent of control [29]: 100% | kinase still bound, per cent of control [30]: 100% | kinase still bound, per cent of control [31]: 100% | kinase still bound, per cent of control [32]: 100% | kinase still bound, per cent of control [33]: 100% | kinase still bound, per cent of control [34]: 100% | kinase still bound, per cent of control [35]: 1.7% | kinase still bound, per cent of control [36]: 100% | kinase still bound, per cent of control [37]: 100%

CCN(CC)CCCCNc1ncc2cc(-c3cc(OC)cc(OC)c3)c(NC(=O)NC(C)(C)C)nc2n1
kinase still bound, per cent of control [1]: 100% | kinase still bound, per cent of control [2]: 100% | kinase still bound, per cent of control [3]: 100% | kinase still bound, per cent of control [4]: 100% | kinase still bound, per cent of control [5]: 100% | kinase still bound, per cent of control [6]: 100% | kinase still bound, per cent of control [7]: 100% | kinase still bound, per cent of control [8]: 100% | kinase still bound, per cent of control [9]: 100% | kinase still bound, per cent of control [10]: 100% | kinase still bound, per cent of control [11]: 100% | kinase still bound, per cent of control [12]: 100% | kinase still bound, per cent of control [14]: 100% | kinase still bound, per cent of control [15]: 36% | kinase still bound, per cent of control [16]: 100% | kinase still bound, per cent of control [17]: 100% | kinase still bound, per cent of control [18]: 100% | kinase still bound, per cent of control [19]: 100% | kinase still bound, per cent of control [20]: 38% | kinase still bound, per cent of control [21]: 20% | kinase still bound, per cent of control [22]: 100% | kinase still bound, per cent of control [23]: 100% | kinase still bound, per cent of control [24]: 100% | kinase still bound, per cent of control [25]: 100% | kinase still bound, per cent of control [26]: 100% | kinase still bound, per cent of control [27]: 100% | kinase still bound, per cent of control [28]: 100% | kinase still bound, per cent of control [29]: 100% | kinase still bound, per cent of control [31]: 100% | kinase still bound, per cent of control [32]: 100% | kinase still bound, per cent of control [33]: 100% | kinase still bound, per cent of control [34]: 100% | kinase still bound, per cent of control [35]: 100% | kinase still bound, per cent of control [36]: 100% | kinase still bound, per cent of control [37]: 100%

Cc1n[nH]c2ccc(-c3cncc(OC[C@@H](N)Cc4c[nH]c5ccccc45)c3)cc12
kinase still bound, per cent of control [1]: 1.8% | kinase still bound, per cent of control [2]: 100% | kinase still bound, per cent of control [3]: 100% | kinase still bound, per cent of control [4]: 2.9% | kinase still bound, per cent of control [5]: 100% | kinase still bound, per cent of control [7]: 100% | kinase still bound, per cent of control [8]: 100% | kinase still bound, per cent of control [9]: 100% | kinase still bound, per cent of control [10]: 100% | kinase still bound, per cent of control [11]: 100% | kinase still bound, per cent of control [12]: 100% | kinase still bound, per cent of control [13]: 3.2% | kinase still bound, per cent of control [14]: 100% | kinase still bound, per cent of control [15]: 100% | kinase still bound, per cent of control [16]: 2.8% | kinase still bound, per cent of control [17]: 100% | kinase still bound, per cent of control [18]: 100% | kinase still bound, per cent of control [19]: 100% | kinase still bound, per cent of control [20]: 28% | kinase still bound, per cent of control [21]: 100% | kinase still bound, per cent of control [22]: 9.4% | kinase still bound, per cent of control [23]: 100% | kinase still bound, per cent of control [24]: 100% | kinase still bound, per cent of control [25]: 5.7% | kinase still bound, per cent of control [26]: 12% | kinase still bound, per cent of control [27]: 100% | kinase still bound, per cent of control [28]: 2.7% | kinase still bound, per cent of control [29]: 100% | kinase still bound, per cent of control [30]: 100% | kinase still bound, per cent of control [31]: 30% | kinase still bound, per cent of control [32]: 100% | kinase still bound, per cent of control [33]: 5.4% | kinase still bound, per cent of control [34]: 100% | kinase still bound, per cent of control [35]: 100% | kinase still bound, per cent of control [36]: 100% | kinase still bound, per cent of control [37]: 100%

— the kinase profiling compilation of Christmann-Franck et al. (2016)
